For 28 molecules, IC50 results are on record in patent US11332459B2 (TEIJIN PHARMA LIMITED, priority 2017, dated 2022).

The target of the experiment is T1, human TRPC6 (Homo sapiens, UniProt Q9Y210).
T1 construct: expressed in transfected cells
T1 sequence (Q9Y210 1-931): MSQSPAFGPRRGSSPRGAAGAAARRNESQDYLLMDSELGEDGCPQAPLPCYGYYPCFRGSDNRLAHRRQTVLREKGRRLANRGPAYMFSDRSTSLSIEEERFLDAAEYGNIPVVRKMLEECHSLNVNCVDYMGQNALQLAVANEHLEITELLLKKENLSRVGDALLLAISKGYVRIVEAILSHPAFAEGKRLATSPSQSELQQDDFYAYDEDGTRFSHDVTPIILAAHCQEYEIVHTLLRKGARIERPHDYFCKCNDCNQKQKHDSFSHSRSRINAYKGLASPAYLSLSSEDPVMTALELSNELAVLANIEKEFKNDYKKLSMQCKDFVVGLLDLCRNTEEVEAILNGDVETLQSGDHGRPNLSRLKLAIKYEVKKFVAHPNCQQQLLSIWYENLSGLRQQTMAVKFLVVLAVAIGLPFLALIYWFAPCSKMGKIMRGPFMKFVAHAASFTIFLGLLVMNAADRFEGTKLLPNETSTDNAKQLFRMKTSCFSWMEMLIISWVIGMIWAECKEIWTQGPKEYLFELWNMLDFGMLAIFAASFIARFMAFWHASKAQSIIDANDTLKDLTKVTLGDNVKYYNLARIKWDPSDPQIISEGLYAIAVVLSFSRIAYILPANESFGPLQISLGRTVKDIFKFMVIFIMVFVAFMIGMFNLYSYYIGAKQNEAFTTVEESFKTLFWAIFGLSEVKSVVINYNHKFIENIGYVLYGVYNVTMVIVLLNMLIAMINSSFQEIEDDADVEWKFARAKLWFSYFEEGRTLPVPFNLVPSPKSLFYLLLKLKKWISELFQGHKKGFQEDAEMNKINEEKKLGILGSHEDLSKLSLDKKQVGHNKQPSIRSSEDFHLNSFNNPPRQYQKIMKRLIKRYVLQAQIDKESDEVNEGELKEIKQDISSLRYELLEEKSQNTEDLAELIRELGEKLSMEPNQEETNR
The experiment can be described thus: TRPC6 calcium flux assay (FLIPR, OAG-stimulated calcium influx). The class given is cell-based. Particulars: HEK293 cells stably transfected with human TRPC6, read-out: hTRPC6 Potency. In outline:
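HEK293 cells stably expressing human TRPC6, loaded with calcium dye 90–120 min at RT, then given compound for 25 min before OAG (50 uM final, 0.5% DMSO) in HEPES buffer pH 7.2 with 2 mM CaCl2. Background-subtracted FLIPR peak over 180 s normalized to OAG vs buffer; IC50 from dose plot.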

Where a name gives a salt, the structure may show the parent alone. A value given as a limit tells only on which side of the number the result lay.

Turning to `C[C@H](c1ccc(C#N)cn1)n1c(N2CC[C@@H]3OCCN[C@H]3C2)nc2cc(F)cc(F)c21` [Example 272, 6-((1R)-1-(5,7-difluoro-2-((4aS,8aS)-hexahydro-2H-pyrido[4,3-b][1,4]oxazin-6(5H)-yl)-1H-benzimidazol-1-yl)ethyl)-3-pyridinecarbonitrile], the IC50 worked out at 2.81 nM.

Consider `C[C@@H](c1ccc(C#N)cn1)n1c(N2CC[C@@H]3OCCN[C@H]3C2)nc2cc(F)cc(F)c21` [Example 273, 6-((1S)-1-(5,7-difluoro-2-((4aS,8aS)-hexahydro-2H-pyrido[4,3-b][1,4]oxazin-6(5H)-yl)-1H-benzimidazol-1-yl)ethyl)-3-pyridinecarbonitrile], for which the IC50 was 13.7 nM.

Consider `C[C@@H](c1ccc(C#N)cn1)n1c(N2CC[C@H]3OCCN[C@@H]3C2)nc2cc(F)cc(F)c21` [Example 274, 6-((1S)-1-(5,7-difluoro-2-((4aR,8aR)-hexahydro-2H-pyrido[4,3-b][1,4]oxazin-6(5H)-yl)-1H-benzimidazol-1-yl)ethyl)-3-pyridinecarbonitrile], for which the IC50 came out at 0.328 nM.

As to `CNC(=O)Cn1c(N2CC[C@@H](F)[C@H](N)C2)nc2cc(F)c(F)cc21` [Example 275, 2-(2-((3R,4R)-3-amino-4-fluoro-1-piperidinyl)-5,6-difluoro-1H-benzimidazol-1-yl)-N-methylacetamide], the IC50 was determined as 0.32 nM.

`N[C@@H]1CN(c2nc3cc(F)c(F)cc3n2CC(=O)N2CCOCC2)CC[C@H]1F` [Example 276, 2-(2-((3R,4R)-3-amino-4-fluoro-1-piperidinyl)-5,6-difluoro-1H-benzimidazol-1-yl)-1-(4-morpholinyl)ethanone]: the IC50 turned out to be 42.2 nM.

Regarding `N[C@@H]1CN(c2nc3cc(F)c(F)cc3n2CC(=O)N2CCCC2)CC[C@H]1F` [Example 277, 2-(2-((3R,4R)-3-amino-4-fluoro-1-piperidinyl)-5,6-difluoro-1H-benzimidazol-1-yl)-1-(1-pyrrolidinyl)ethanone], the IC50 came out at 0.49 nM.

Take `CN(C)C(=O)Cn1c(N2CC[C@@H](F)[C@H](N)C2)nc2cc(F)c(F)cc21` [Example 278, 2-(2-((3R,4R)-3-amino-4-fluoro-1-piperidinyl)-5,6-difluoro-1H-benzimidazol-1-yl)-N,N-dimethylacetamide]: the IC50 stood at 737 nM.

Turning to `C[C@H](C(=O)N(C)C)n1c(N2CC[C@@H](F)[C@H](N)C2)nc2cc(F)c(F)cc21` [Example 279], the IC50 came out at 7.16 nM.

Take `C[C@@H](C(=O)N(C)C)n1c(N2CC[C@@H](F)[C@H](N)C2)nc2cc(F)c(F)cc21` [Example 280, (2S)-2-(2-((3R,4R)-3-amino-4-fluoro-1-piperidinyl)-5,6-difluoro-1H-benzimidazol-1-yl)-N,N-dimethylpropanamide]: the IC50 was found to be 1.47 nM.

`N[C@@H]1CN(c2nc3cc(F)c(F)cc3n2CC(=O)N2CCCCC2)CC[C@H]1F` [Example 281, 2-(2-((3R,4R)-3-amino-4-fluoro-1-piperidinyl)-5,6-difluoro-1H-benzimidazol-1-yl)-1-(1-piperidinyl)ethanone]: the IC50 was found to be 26.9 nM.

Take `CCNC(=O)Cn1c(N2CC[C@@H](F)[C@H](N)C2)nc2cc(F)c(F)cc21` [Example 282, 2-(2-((3R,4R)-3-amino-4-fluoro-1-piperidinyl)-5,6-difluoro-1H-benzimidazol-1-yl)-N-ethylacetamide]: the IC50 turned out to be 150 nM.

For `CN[C@@H]1CN(c2nc3ccc(C#N)cc3n2Cc2ncc(Cl)cn2)CC[C@H]1F` [Example 283, 1-((5-chloro-2-pyrimidinyl)methyl)-2-((3R,4R)-4-fluoro-3-(methylamino)-1-piperidinyl)-1H-benzimidazole-6-carbonitrile], the IC50 is 23.8 nM.

As for `CN[C@@H]1CN(c2nc3cc(C#N)ccc3n2Cc2ncc(Cl)cn2)CC[C@H]1F` [Example 284, 1-((5-chloro-2-pyrimidinyl)methyl)-2-((3R,4R)-4-fluoro-3-(methylamino)-1-piperidinyl)-1H-benzimidazole-5-carbonitrile], the IC50 is 223 nM.

Turning to `N[C@@H]1CN(c2nc3ccc(Cl)cc3n2CC(=O)N2CCC2)CC[C@H]1F` [Example 285, 2-(2-((3R,4R)-3-amino-4-fluoro-1-piperidinyl)-6-chloro-1H-benzimidazol-1-yl)-1-(1-azetidinyl)ethanone], the IC50 amounted to 185 nM.

In the case of `N[C@@H]1CN(c2nc3cc(Cl)ccc3n2CC(=O)N2CCC2)CC[C@H]1F` [Example 286, 2-(2-((3R,4R)-3-amino-4-fluoro-1-piperidinyl)-5-chloro-1H-benzimidazol-1-yl)-1-(1-azetidinyl)ethanone], the IC50 stood at 562 nM.

`N#Cc1ccc2nc(N3CC[C@H](F)[C@H](N)C3)n(CC(=O)N3CCC3)c2c1` [Example 287, 2-((3R,4S)-3-amino-4-fluoro-1-piperidinyl)-1-(2-(1-azetidinyl)-2-oxoethyl)-1H-benzimidazole-6-carbonitrile]: the IC50 worked out at 10.7 nM.

On to `N#Cc1ccc2c(c1)nc(N1CC[C@H](F)[C@H](N)C1)n2CC(=O)N1CCC1` [Example 288, 2-((3R,4S)-3-amino-4-fluoro-1-piperidinyl)-1-(2-(1-azetidinyl)-2-oxoethyl)-1H-benzimidazole-5-carbonitrile], for which the IC50 is over 3750 nM.

Regarding `N[C@@H]1CN(c2nc3ccc(F)cc3n2Cc2ncc(Cl)cn2)CC[C@H]1F` [Example 289, (3R,4R)-1-(1-((5-chloropyrimidin-2-yl)methyl)-6-fluoro-1H-benzo[d]imidazol-2-yl)-4-fluoropiperidin-3-amine], the IC50 was determined as 73.5 nM.

In the case of `N[C@@H]1CN(c2nc3cc(F)ccc3n2Cc2ncc(Cl)cn2)CC[C@H]1F` [Example 290, (3R,4R)-1-(1-((5-chloropyrimidin-2-yl)methyl)-5-fluoro-1H-benzo[d]imidazol-2-yl)-4-fluoropiperidin-3-amine], the IC50 was 1970 nM.

Consider `N#Cc1ccc(Cn2c(N3CCC[C@@H](N)C3)nc3ccccc32)nc1` [Example 291, (R)-6-((2-(3-aminopiperidin-1-yl)-1H-benzo[d]imidazol-1-yl)methyl)nicotinonitrile], for which the IC50 is over 3750 nM.

`N#Cc1ccc(Cn2c(N3CCC[C@@H](N)C3)nc3ccccc32)cn1` [Example 292, (R)-5-((2-(3-aminopiperidin-1-yl)-1H-benzo[d]imidazol-1-yl)methyl)picolinonitrile 2,2,2-trifluoroacetate]: the IC50 was 62.5 nM.

As to `N[C@@H]1CCCN(c2nc3ccccc3n2Cc2ccc3ccncc3c2)C1` [Example 293, (R)-1-(1-(isoquinolin-7-ylmethyl)-1H-benzo[d]imidazol-2-yl)piperidin-3-amine], the IC50 is 2920 nM.

Regarding `C[C@H](c1ccc(C#N)cn1)n1c(N2CCC[C@H](N)C2)nc2ccccc21` [Example 295, 6-((R)-1-(2-((S)-3-aminopiperidin-1-yl)-1H-benzo[d]imidazol-1-yl)ethyl)nicotinonitrile hydrochloride], the IC50 was 5.07 nM.

Consider `C[C@@H](c1ccc(C#N)cn1)n1c(N2CCC[C@H](N)C2)nc2ccccc21` [Example 296, 6-((S)-1-(2-((S)-3-aminopiperidin-1-yl)-1H-benzo[d]imidazol-1-yl)ethyl)nicotinonitrile hydrochloride], for which the IC50 stood at 7.65 nM.

Take `C[C@H](c1ccc(C#N)cn1)n1c(N2CC[C@@H](F)[C@H](N)C2)nc2ccccc21` [Example 297, 6-((R)-1-(2-((3R,4R)-3-amino-4-fluoropiperidin-1-yl)-1H-benzo[d]imidazol-1-yl)ethyl)nicotinonitrile hydrochloride]: the IC50 was determined as 78.5 nM.

As for `C[C@@H](c1ccc(C#N)cn1)n1c(N2CC[C@@H](F)[C@H](N)C2)nc2ccccc21` [Example 298, 6-((S)-1-(2-((3R,4R)-3-amino-4-fluoropiperidin-1-yl)-1H-benzo[d]imidazol-1-yl)ethyl)nicotinonitrile hydrochloride], the IC50 was 17.2 nM.

For `CC[C@H](c1ccc(C#N)cn1)n1c(N2CCC[C@H](N)C2)nc2ccccc21` [Example 299, 6-((R)-1-(2-((S)-3-aminopiperidin-1-yl)-1H-benzo[d]imidazol-1-yl)propyl)nicotinonitrile hydrochloride], the IC50 is 8.76 nM.

As to `CC[C@@H](c1ccc(C#N)cn1)n1c(N2CCC[C@H](N)C2)nc2ccccc21` [Example 300, 6-((S)-1-(2-((S)-3-aminopiperidin-1-yl)-1H-benzo[d]imidazol-1-yl)propyl)nicotinonitrile hydrochloride], the IC50 amounted to 406 nM.
